According to US10064858B2, “Methods and compositions for treating bacterial infections with iron chelators” (THE UNITED STATES OF AMERICA, AS REPRESENTED BY THE …, priority 2011, dated 2018):

Legend:
E. coli EC35218 = test: Time-kill assay in CAMHB; format: cell-based; settings: ¾MIC Rifampicin alone; CAMHB
Description: Reductions in colony forming units (CFU)/mL were determined over time (time-kill assay) after exposure to VK28 and deferiprone (DFP), the two iron chelators that performed best in MIC assays when compared to controls. To better represent the iron content found in the human body, MIC and time-kill assays were also determined in minimal media and tissue culture media. Time-Kill assays were performed as previously described in G. P. Neupane et al., “In vitro time-kill activities of ciprofloxacin alone and in combination with the iron chelator deferasirox against Vibrio vulnificus,” European Journal of Clinical Microbiology and Infectious Diseases, 407-410 (2010); and R. L. White, et al., “Comparison of Three Different In Vitro Methods of Detecting synergy: Time-Kill, Checkerboard, and E test,” Journal of Antimicrobial Agents and Chemotherapy, 1914-1918 (1996). Initial inocula, for example 1×10^6 CFU/mL or 1×10^7 CFU/mL were challenged with iron chelator with and/or without an antibiotic. Cells were allowed to grow in CAMHB at 37° C. for 24 hours. Time-kill results were analyzed by determining the change in log 10 numbers of CFU/ml at 0, 6, and 24 h, compared to counts at 0 h. Antimicrobials were considered bactericidal at the lowest concentration that reduced the size of the original inoculum by >3 log 10 CFU/ml (99.9%) over each of the time periods and were considered bacteriostatic if the inoculum's size was reduced by 0 to <3 log 10 CFU/ml.
In this example, time-kill assays were performed as described in Example 9 against different multi-drug resistant bacteria, namely E. coli and MRSA.
In this example, time-kill assays were performed as described in Example 9 using ApoL1 as the iron chelator against two different E. coli strains. […] Time-kill results were analyzed by determining the change in log 10 numbers of CFU/mL at 6 and 24 hours.
In this example, time-kill assays were performed as described in Example 9 using Apo6619 as the iron chelator in combination with Rifampin against E. coli 35718. […] Time-kill results were analyzed by determining the change in log 10 numbers of CFU/mL at 0, 5 and 24 hours.

[1] = system: A. baumannii strain AB19606; test: Growth (OD600) with chelator, Rifampin or both; format: cell-based; settings: CAMHB
Description: A. baumannii strain AB19606 was grown in CAMHB and challenged with 1.5×MIC compound 4 (Var) or 1.5×MIC Triapine (Tri) with or without 0.75×MIC Rifampin (Rif). Growth was estimated by absorbance at 600 nm (y-axis) at 0 or 24 hours.

E. coli strain EC35218 = test: Growth (OD600) with chelator, Rifampin or both; format: cell-based; settings: CAMHB
Description: E. coli strain EC35218 was grown in CAMHB and challenged with 1.5×MIC compound 4 (Var) or 1.5×MIC Triapine (Tri) with or without 0.75×MIC Rifampin (Rif). Growth was estimated by absorbance at 600 nm (y-axis) at 0 or 24 hours.

[2] = system: AB5075, a stain of A. baumannii (Ab); test: Development of rifampin resistance over 7 days (OD600); format: cell-based; settings: rifampin alone
Description: Development of antibiotic-resistant strains is an ongoing problem in the treatment of bacterial infections. In some embodiments, the present technology provides methods and compositions for reducing, inhibiting or preventing formation of antibiotic-resistant bacterial strains. In some embodiments, the iron chelator of the present technology is administered to a patient as a prophylactic before antibiotic treatment or during antibiotic treatment. In some embodiments, the iron chelator is added concurrently with an antibiotic.
Cultures of AB5075, a stain of A. baumannii (Ab), was cultured in the presence of Rifampin alone, the iron chelator ApoL1 alone or Rifampin combination with ApoL1 for 7 days.

[3] = system: clinical isolates of A. baumannii; test: MIC for clinical isolates in CAMHB media (Table 3); format: cell-based; settings: Acinetobacter baumannii
Description: Individual MICs were determined following the microdilution method recommended by CLSI in cationic-adjusted Mueller-Hinton Broth (CAMHB), or M9 media. […] Tests were performed in triplicate. MIC of iron chelators were determined for noscomial ESKAPE pathogens.

[4] = system: clinical isolates of A. baumannii; test: MIC for clinical isolates in RPMI (low iron) media (Table 4); format: cell-based; set-up: key to MIC of Iron Chelators: NG = no growth in table 4; settings: for MIC: Acinetobacter baumannii
Description: […] […] Tests were performed in triplicate. MIC of iron chelators were determined for noscomial ESKAPE pathogens.
For a number of strains, the iron chelators produced no growth of bacteria (NG).

[5] = system: A. baumannii, strain AB5711; test: Growth curves (OD600) in CAMHB with compound 4; format: cell-based
Description: It should be noted that the inhibition occurred in a dose-responsive manner.

[6] = Stability in aqueous solution; format: physicochemical
[7] = alone: 1.5×MIC chelator or 0.75×MIC Rifampin
[8] = AB3638, read-out: MIC of Iron Chelators
[9] = AB3785, read-out: MIC of Iron Chelators
[10] = AB3806, read-out: MIC of Iron Chelators
[11] = AB3917, read-out: MIC of Iron Chelators
[12] = AB4025, read-out: MIC of Iron Chelators
[13] = AB4026, read-out: MIC of Iron Chelators
[14] = AB4027, read-out: MIC of Iron Chelators
[15] = AB4052, read-out: MIC of Iron Chelators
[16] = AB4269, read-out: MIC of Iron Chelators
[17] = AB4448, read-out: MIC of Iron Chelators
[18] = AB4456, read-out: MIC of Iron Chelators
[19] = AB4490, read-out: MIC of Iron Chelators
[20] = AB4498, read-out: MIC of Iron Chelators
[21] = AB4795, read-out: MIC of Iron Chelators
[22] = AB4857, read-out: MIC of Iron Chelators
[23] = AB4878, read-out: MIC of Iron Chelators
[24] = AB4932, read-out: MIC of Iron Chelators
[25] = AB4957, read-out: MIC of Iron Chelators
[26] = AB4991, read-out: MIC of Iron Chelators
[27] = AB5001, read-out: MIC of Iron Chelators
[28] = AB5075, read-out: MIC of Iron Chelators
[29] = AB5197, read-out: MIC of Iron Chelators
[30] = AB5256, read-out: MIC of Iron Chelators
[31] = AB5674, read-out: MIC of Iron Chelators
[32] = AB5711, read-out: MIC of Iron Chelators
[33] = 1.5×MIC chelator in combination with 0.75×MIC Rifampin

In the case of CO[C@H]1/C=C/O[C@@]2(C)Oc3c(C)c(O)c4c(O)c(c(/C=N/N5CCN(C)CC5)c(O)c4c3C2=O)NC(=O)/C(C)=C\C=C\[C@H](C)[C@H](O)[C@@H](C)[C@@H](O)[C@@H](C)[C@H](OC(C)=O)[C@@H]1C [Rifampin], the “CFU/mL at 24 hours” value (E. coli EC35218) was “about 1×10^7 CFU/mL”, the “reduction of bacteria (absorbance at 600 nm, 24 hours)” value (“reduction of bacteria” below) [1, 7] was “no reduction of bacteria” and the “reduction of bacteria” value (E. coli strain EC35218; [7]) was “did not result in a reduction of bacteria”. The “time until antibiotic-resistant strains develop” value [2] was “less than one day”.
OCCN1CCN(CCc2ccc(O)c3ncccc23)CC1 [Compound 4, 5-(2-(4-(2-hydroxyethyl)piperazin-1-yl)ethyl)-8-quinolinol] showed an MIC ([3]; AB967, read-out: MIC of Iron Chelators) of 500 µg/mL, an MIC ([3]; AB2828, read-out: MIC of Iron Chelators) of 500 µg/mL and an MIC ([3]; AB3340, read-out: MIC of Iron Chelators) of 500 µg/mL. It also gave an MIC ([3]; AB3560, read-out: MIC of Iron Chelators) of 500 µg/mL, an MIC [3, 8] of 500 µg/mL and an MIC [3, 9] of 500 µg/mL. For the same molecule, the MIC [3, 10] was 1000 µg/mL, the MIC [3, 11] was 500 µg/mL and the MIC ([3]; AB3927, read-out: MIC of Iron Chelators) was 500 µg/mL. It also gave an MIC [3, 12] of 500 µg/mL, an MIC [3, 13] of 500 µg/mL and an MIC [3, 14] of 500 µg/mL. It also gave an MIC [3, 15] of 1000 µg/mL, an MIC [3, 16] of 500 µg/mL and an MIC [3, 17] of 500 µg/mL. The MIC [3, 18] was 500 µg/mL, the MIC [3, 19] was 500 µg/mL and the MIC [3, 20] was 500 µg/mL. The MIC [3, 21] was 500 µg/mL, the MIC [3, 22] was 500 µg/mL and the MIC [3, 23] was 500 µg/mL. It also gave an MIC [3, 24] of 500 µg/mL, an MIC [3, 25] of 500 µg/mL and an MIC [3, 26] of 500 µg/mL. It also gave an MIC [3, 27] of 500 µg/mL, an MIC [3, 28] of 500 µg/mL and an MIC [3, 29] of 500 µg/mL. For the same molecule, the MIC [3, 30] was 500 µg/mL, the MIC [3, 31] was 500 µg/mL and the MIC [3, 32] was 500 µg/mL. The “MIC of Iron Chelators” value ([4]; AB967) was “NG”, the “MIC of Iron Chelators” value ([4]; AB2828) was “NG” and the “MIC of Iron Chelators” value ([4]; AB3340) was “NG”. The “MIC of Iron Chelators” value ([4]; AB3560) was “NG”, the “MIC of Iron Chelators” value ([4]; AB3927) was “NG” and the MIC [4, 8] was 64 µg/mL. It also gave an MIC [4, 9] of 32 µg/mL, an MIC [4, 10] of 32 µg/mL and an MIC [4, 11] of 32 µg/mL. The MIC [4, 12] was 32 µg/mL, the MIC [4, 13] was 32 µg/mL and the MIC [4, 14] was 32 µg/mL. For the same molecule, the MIC [4, 15] was 64 µg/mL, the MIC [4, 16] was 32 µg/mL and the MIC [4, 17] was 64 µg/mL. It also gave an MIC [4, 18] of 32 µg/mL, an MIC [4, 19] of 32 µg/mL and an MIC [4, 20] of 64 µg/mL. For the same molecule, the MIC [4, 21] was 32 µg/mL, the MIC [4, 22] was 64 µg/mL and the MIC [4, 23] was 64 µg/mL. It also gave an MIC [4, 24] of 125 µg/mL, an MIC [4, 25] of 125 µg/mL and an MIC [4, 26] of 8 µg/mL. For the same molecule, the MIC [4, 27] was 32 µg/mL, the MIC [4, 28] was 64 µg/mL and the MIC [4, 29] was 32 µg/mL. For the same molecule, the MIC [4, 30] was 125 µg/mL, the MIC [4, 31] was 32 µg/mL and the MIC [4, 32] was 64 µg/mL. For the same molecule, the “reduction of bacteria” value [1, 33] was “significant reduction in bacteria”, the “reduction of bacteria” value [1, 7] was “no reduction of bacteria” and the “reduction of bacteria” value (E. coli strain EC35218; [33]) was “significant reduction in bacteria”. The “reduction of bacteria” value (E. coli strain EC35218; [7]) was “did not result in a reduction of bacteria”, the “OD600 (growth curves)” value [5] was “dramatically reduced” and the “stability in aqueous solution” value [6] was “highly stable”.
